Experimental data reported in ChEMBL document CHEMBL3044631, “Synthesis of 2-[4,5-dimethyl-1-(phenylamino)-1H-imidazol-2-ylthio]-N-(thiazole-2-yl)acetamide derivatives and their anticancer activities” (2013).

What was measured:
Format in all cases: functional
IGROV-1 [1] = assay: Anticancer activity against Homo sapiens (human) IGROV1 cells assessed as cell growth promotion at 10 uM after 48 hr by SRB assay
T47D = assay: Anticancer activity against Homo sapiens (human) T47D cells assessed as cell growth promotion at 10 uM after 48 hr by SRB assay
BT-549 = assay: Anticancer activity against Homo sapiens (human) BT549 cells assessed as cell growth promotion at 10 uM after 48 hr by SRB assay
UO-31 = assay: Anticancer activity against Homo sapiens (human) UO31 cells assessed as cell growth promotion at 10 uM after 48 hr by SRB assay
RXF 393 = assay: Anticancer activity against Homo sapiens (human) RXF393 cells assessed as cell growth promotion at 10 uM after 48 hr by SRB assay
A498 = assay: Anticancer activity against Homo sapiens (human) A498 cells assessed as cell growth promotion at 10 uM after 48 hr by SRB assay
OVCAR-8 [2] = assay: Anticancer activity against Homo sapiens (human) OVCAR8 cells assessed as cell growth promotion at 10 uM after 48 hr by SRB assay
OVCAR-5 [3] = assay: Anticancer activity against Homo sapiens (human) OVCAR5 cells assessed as cell growth promotion at 10 uM after 48 hr by SRB assay
SF-295 = assay: Anticancer activity against Homo sapiens (human) SF295 cells after 48 hr by SRB assay; conditions: SF-295, 48 h
SW-620 [4] = assay: Anticancer activity against Homo sapiens (human) SW620 cells after 48 hr by SRB assay; conditions: SW-620, 48 h
KM12 = assay: Anticancer activity against Homo sapiens (human) KM12 cells after 48 hr by SRB assay; conditions: KM12, 48 h
HT-29 = assay: Anticancer activity against Homo sapiens (human) HT-29 cells after 48 hr by SRB assay; conditions: HT-29, 48 h
NCI-H23 [5] = assay: Anticancer activity against Homo sapiens (human) NCI-H23 cells after 48 hr by SRB assay; conditions: NCI-H23, 48 h
NCI-H322M [6] = assay: Anticancer activity against Homo sapiens (human) NCI-H322M cells after 48 hr by SRB assay
NCI-H322M [7] = assay: Anticancer activity against Homo sapiens (human) NCI-H322M cells assessed as cell growth promotion at 10 uM after 48 hr by SRB assay
NCI-H23 [8] = assay: Anticancer activity against Homo sapiens (human) NCI-H23 cells assessed as cell growth promotion at 10 uM after 48 hr by SRB assay
NCI-H226 = assay: Anticancer activity against Homo sapiens (human) NCI-H226 cells assessed as cell growth promotion at 10 uM after 48 hr by SRB assay
SR = assay: Anticancer activity against Homo sapiens (human) SR cells assessed as cell growth promotion at 10 uM after 48 hr by SRB assay
CCRF-CEM = assay: Anticancer activity against Homo sapiens (human) CCRF-CEM cells assessed as cell growth promotion at 10 uM after 48 hr by SRB assay
SK-MEL-28 = assay: Anticancer activity against Homo sapiens (human) SK-MEL-28 cells assessed as cell growth promotion at 10 uM after 48 hr by SRB assay
M14 = assay: Anticancer activity against Homo sapiens (human) M14 cells assessed as cell growth promotion at 10 uM after 48 hr by SRB assay
LOX IMVI = assay: Anticancer activity against Homo sapiens (human) LOXIMVI cells assessed as cell growth promotion at 10 uM after 48 hr by SRB assay
U-251 [9] = assay: Anticancer activity against Homo sapiens (human) U251 cells assessed as cell growth promotion at 10 uM after 48 hr by SRB assay
SNB-75 = assay: Anticancer activity against Homo sapiens (human) SNB75 cells assessed as cell growth promotion at 10 uM after 48 hr by SRB assay
SNB-19 [10] = assay: Anticancer activity against Homo sapiens (human) SNB19 cells assessed as cell growth promotion at 10 uM after 48 hr by SRB assay
SW-620 [11] = assay: Anticancer activity against Homo sapiens (human) SW620 cells assessed as cell growth promotion at 10 uM after 48 hr by SRB assay
NCI-H460 = assay: Anticancer activity against Homo sapiens (human) NCI-H460 cells after 48 hr by SRB assay; conditions: NCI-H460, 48 h
Hs-578T = assay: Anticancer activity against Homo sapiens (human) Hs 578T cells after 48 hr by SRB assay
OVCAR-8 [12] = assay: Anticancer activity against Homo sapiens (human) OVCAR8 cells after 48 hr by SRB assay; conditions: OVCAR-8, 48 h
OVCAR-5 [13] = assay: Anticancer activity against Homo sapiens (human) OVCAR5 cells after 48 hr by SRB assay; conditions: OVCAR-5, 48 h
IGROV-1 [14] = assay: Anticancer activity against Homo sapiens (human) IGROV1 cells after 48 hr by SRB assay; conditions: IGROV-1, 48 h
UACC-62 = assay: Anticancer activity against Homo sapiens (human) UACC62 cells after 48 hr by SRB assay; conditions: UACC-62, 48 h
SK-MEL-2 = assay: Anticancer activity against Homo sapiens (human) SK-MEL-2 cells after 48 hr by SRB assay; conditions: SK-MEL-2, 48 h
U-251 [15] = assay: Anticancer activity against Homo sapiens (human) U251 cells after 48 hr by SRB assay; conditions: U-251, 48 h
SNB-19 [16] = assay: Anticancer activity against Homo sapiens (human) SNB19 cells after 48 hr by SRB assay; conditions: SNB-19, 48 h
SN12C = assay: Anticancer activity against Homo sapiens (human) SN12C cells after 48 hr by SRB assay
[17] = read-out: LC50 (the source's name)

Cc1ccc(Nn2c(SCC(=O)Nc3nc(-c4ccccc4)cs3)nc(C)c2C)cc1
Activity (IGROV-1 [1]): 86%
Activity (T47D): 6.48%
Activity (BT-549): 63.51%
Activity (UO-31): 51.58%
Activity (RXF 393): 61.47%
Activity (A498): 92.54%
Activity (OVCAR-8 [2]): 55.49%
Activity (OVCAR-5 [3]): 81.8%
GI50 (SF-295): 1.06 µM
LC50 (SF-295): > 100 µM
TGI (SF-295): 5.89 µM
GI50 (SW-620 [4]): 8.03 µM
LC50 (concentration killing 50% of cells) (SW-620 [4]): > 100 µM
TGI (SW-620 [4]): > 100 µM
GI50 (KM12): 4.13 µM
LC50 (concentration killing 50% of cells) (KM12): > 100 µM
TGI (KM12): 19.1 µM
GI50 (HT-29): 4.37 µM
LC50 (HT-29): > 100 µM
TGI (HT-29): 28.2 µM
GI50 (NCI-H23 [5]): 3.42 µM
TGI (NCI-H23 [5]): > 100 µM
CC50 (NCI-H23 [5]; [17]): > 100 µM
GI50 (NCI-H322M [6]): 10.2 µM
TGI (NCI-H322M [6]): > 100 µM
CC50 (NCI-H322M [6]; [17]): > 100 µM
Activity (NCI-H322M [7]): 96.01%
Activity (NCI-H23 [8]): 39.38%
Activity (NCI-H226): 46.34%
Activity (SR): 72.64%
Activity (CCRF-CEM): 57.71%
Activity (SK-MEL-28): 77.24%
Activity (M14): 76.97%
Activity (LOX IMVI): 51.93%
Activity (U-251 [9]): 49.3%
Activity (SNB-75): 38.33%
Activity (SNB-19 [10]): 74.35%
Activity (SW-620 [11]): 98.8%
GI50 (NCI-H460): 3.88 µM
LC50 (NCI-H460): 83.3 µM
TGI (NCI-H460): 16.5 µM
GI50 (Hs-578T): 3.41 µM
TGI (Hs-578T): > 100 µM
CC50 (Hs-578T; [17]): > 100 µM
GI50 (OVCAR-8 [12]): 3.79 µM
TGI (OVCAR-8 [12]): > 100 µM
CC50 (OVCAR-8 [12]; [17]): > 100 µM
GI50 (OVCAR-5 [13]): 17.2 µM
LC50 (OVCAR-5 [13]): > 100 µM
TGI (OVCAR-5 [13]): > 100 µM
GI50 (IGROV-1 [14]): 4.59 µM
LC50 (concentration killing 50% of cells) (IGROV-1 [14]): > 100 µM
TGI (IGROV-1 [14]): > 100 µM
GI50 (UACC-62): 3.15 µM
LC50 (UACC-62): > 100 µM
TGI (UACC-62): > 100 µM
GI50 (SK-MEL-2): 7.58 µM
LC50 (concentration killing 50% of cells) (SK-MEL-2): > 100 µM
TGI (SK-MEL-2): 35.3 µM
GI50 (U-251 [15]): 4.5 µM
LC50 (lethal concentration, 50% net cell kill) (U-251 [15]): > 100 µM
TGI (U-251 [15]): > 100 µM
GI50 (SNB-19 [16]): 7.49 µM
LC50 (SNB-19 [16]): > 100 µM
TGI (SNB-19 [16]): > 100 µM
GI50 (SN12C): 3.2 µM
LC50 (concentration killing 50% of cells) (SN12C): 63 µM
TGI (SN12C): 14.2 µM

COc1ccc(Nn2c(SCC(=O)Nc3nccs3)nc(C)c2C)cc1
Activity (IGROV-1 [1]): 102.01%
Activity (T47D): 94.87%
Activity (BT-549): 105.55%
Activity (UO-31): 86.71%
Activity (RXF 393): 126.87%
Activity (A498): 99.48%
Activity (OVCAR-8 [2]): 103.25%
Activity (OVCAR-5 [3]): 89.33%
Activity (NCI-H322M [7]): 110.58%
Activity (NCI-H23 [8]): 106.56%
Activity (NCI-H226): 105.15%
Activity (SR): 104%
Activity (CCRF-CEM): 100.87%
Activity (SK-MEL-28): 113.96%
Activity (M14): 107.71%
Activity (LOX IMVI): 105.4%
Activity (U-251 [9]): 104.49%
Activity (SNB-75): 100.22%
Activity (SNB-19 [10]): 109.69%
Activity (SW-620 [11]): 113.7%

Cc1nc(SCC(=O)Nc2nccs2)n(Nc2ccccc2)c1C
Activity (IGROV-1 [1]): 123.21%
Activity (T47D): 90.52%
Activity (BT-549): 96.32%
Activity (UO-31): 84.18%
Activity (RXF 393): 83.96%
Activity (A498): 101.7%
Activity (OVCAR-8 [2]): 95.17%
Activity (OVCAR-5 [3]): 80.93%
Activity (NCI-H322M [7]): 118.03%
Activity (NCI-H23 [8]): 97.67%
Activity (NCI-H226): 100.29%
Activity (SR): 100.2%
Activity (CCRF-CEM): 102.19%
Activity (SK-MEL-28): 99.72%
Activity (M14): 96.9%
Activity (LOX IMVI): 99.28%
Activity (U-251 [9]): 102.44%
Activity (SNB-75): 85.3%
Activity (SNB-19 [10]): 108.55%
Activity (SW-620 [11]): 116.34%

Cc1nc(SCC(=O)Nc2nccs2)n(Nc2ccc(Cl)cc2)c1C
Activity (IGROV-1 [1]): 126.1%
Activity (T47D): 91.74%
Activity (BT-549): 111.12%
Activity (UO-31): 86.43%
Activity (RXF 393): 91.41%
Activity (A498): 101.93%
Activity (OVCAR-8 [2]): 104.9%
Activity (OVCAR-5 [3]): 87.36%
Activity (NCI-H322M [7]): 131.8%
Activity (NCI-H23 [8]): 109.41%
Activity (NCI-H226): 93.51%
Activity (SR): 120.95%
Activity (CCRF-CEM): 99.59%
Activity (SK-MEL-28): 111.02%
Activity (M14): 97.83%
Activity (LOX IMVI): 101.8%
Activity (U-251 [9]): 108.53%
Activity (SNB-75): 92.05%
Activity (SNB-19 [10]): 121.25%
Activity (SW-620 [11]): 123.41%
